For 25 molecules, IC50 results are on record in patent publication EP4667458A1 (Kanaph Therapeutics Inc., priority 2023, dated 2024).

Bounds are passed on as bounds.

The assay has as its target T1, KRAS^G12C::SOS1 (Homo sapiens, UniProt Q07889).
T1 sequence (Q07889 1-1333): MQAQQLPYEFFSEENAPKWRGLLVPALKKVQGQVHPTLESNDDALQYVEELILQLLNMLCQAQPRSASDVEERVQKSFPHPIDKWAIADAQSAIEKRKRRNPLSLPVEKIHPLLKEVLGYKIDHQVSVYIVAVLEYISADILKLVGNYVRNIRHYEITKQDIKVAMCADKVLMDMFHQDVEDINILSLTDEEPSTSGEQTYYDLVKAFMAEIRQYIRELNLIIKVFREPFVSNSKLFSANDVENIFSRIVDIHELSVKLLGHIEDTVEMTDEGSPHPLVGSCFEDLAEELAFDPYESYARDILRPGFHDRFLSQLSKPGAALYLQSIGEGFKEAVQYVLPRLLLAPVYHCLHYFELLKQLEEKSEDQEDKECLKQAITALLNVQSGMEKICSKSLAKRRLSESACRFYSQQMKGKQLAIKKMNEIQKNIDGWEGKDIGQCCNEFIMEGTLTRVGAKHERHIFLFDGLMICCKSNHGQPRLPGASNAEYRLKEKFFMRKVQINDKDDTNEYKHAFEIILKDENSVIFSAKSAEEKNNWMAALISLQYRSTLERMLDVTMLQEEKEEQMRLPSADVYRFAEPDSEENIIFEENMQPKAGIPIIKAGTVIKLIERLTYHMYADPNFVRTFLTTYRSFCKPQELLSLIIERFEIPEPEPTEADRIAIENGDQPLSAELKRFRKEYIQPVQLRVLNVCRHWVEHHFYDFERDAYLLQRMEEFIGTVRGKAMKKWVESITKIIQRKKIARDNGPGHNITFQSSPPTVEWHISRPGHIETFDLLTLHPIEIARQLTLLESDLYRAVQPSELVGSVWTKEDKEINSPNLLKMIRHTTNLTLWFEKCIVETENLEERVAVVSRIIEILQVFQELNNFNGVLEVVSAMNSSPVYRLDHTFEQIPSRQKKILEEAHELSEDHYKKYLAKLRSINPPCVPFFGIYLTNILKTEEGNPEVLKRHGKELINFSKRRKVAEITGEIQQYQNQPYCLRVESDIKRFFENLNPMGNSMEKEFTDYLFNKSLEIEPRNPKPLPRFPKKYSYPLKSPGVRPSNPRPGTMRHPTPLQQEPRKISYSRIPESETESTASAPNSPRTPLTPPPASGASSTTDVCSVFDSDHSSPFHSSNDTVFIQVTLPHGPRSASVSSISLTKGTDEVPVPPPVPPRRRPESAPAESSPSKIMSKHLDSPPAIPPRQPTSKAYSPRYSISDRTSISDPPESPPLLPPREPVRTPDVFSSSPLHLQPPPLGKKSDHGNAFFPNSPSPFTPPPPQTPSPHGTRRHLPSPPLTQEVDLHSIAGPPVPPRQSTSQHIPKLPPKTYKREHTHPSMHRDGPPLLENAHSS
As to the kind of experiment: KRAS G12C::SOS1 protein-protein interaction (PPI) inhibition assay (HTRF binding kit).
Description: Protein-protein interaction between SOS1 and KRAS^G12C was detected using KRAS G12C/SOS1 binding kit from CISBIO (64KRASG12PEH, CISBIO, FRANCE) according to the manufacturer's assay method. Briefly, the maximum concentration of an inhibitor sample was set to be 3 µM, and the inhibitor sample was diluted 7 times by 1/3, and samples having a total of 8 concentrations were prepared. In HTRF (Homogeneous Time-Resolved Fluorescence) exclusive 96-well low-volume white plate (66PL96005, CISBIO, FRANCE), 2 µL of an inhibitor sample prepared for each concentration, 5 µL of a mixed solution of Tag1-labeled KRAS^G12C protein and GTP diluted with the dilution solution provided by the manufacturer, and 5 µL of Tag2 labeled SOS1 protein were mixed, and added with 8 µL of a diluted solution where anti-Tag1 KRAS^G12C XL665 (HTRF acceptor) labeled antibody and anti-Tag2 SOS1 Terbium cryptate (HTRF donor) labeled antibody were mixed in an equal ratio and incubated at room temperature for 2 h.
On to `COc1cnccc1-n1nc(C(=O)N[C@H](C)c2cc(N)cc(C(F)(F)F)c2)ccc1=O` [Example 145, N-[(1R)-1-[3-amino-5-(trifluoromethyl)phenyl]ethyl]-1-(3-methoxy-4-pyridyl)-6-oxo-pyridazine-3-carboxamide], for which the IC50 is less than 1000 nM.

`C[C@@H](NC(=O)c1ccc(=O)n(-c2cccnc2)n1)c1cccc(C(F)(F)CO)c1F` [Example 146, N-[(1R)-1-[3-(1,1-difluoro-2-hydroxy-ethyl)-2-fluoro-phenyl]ethyl]-6-oxo-1-(3-pyridyl)pyridazine-3-carboxamide] displayed a 50% inhibitory concentration (IC50) of less than 1000 nM.

Molecule `C[C@@H](NC(=O)c1ccc(=O)n(-c2cccnc2F)c1)c1cccc(C(F)(F)CO)c1F` [Example 147, N-[(1R)-1-[3-(1,1-difluoro-2-hydroxy-ethyl)-2-fluoro-phenyl]ethyl]-1-(2-fluoro-3-pyridyl)-6-oxo-pyridine-3-carboxamide] yielded an IC50 of less than 1000 nM.

`Cc1ncc(-n2nc(C(=O)N[C@H](C)c3cc(N)cc(C(F)(F)F)c3)ccc2=O)cn1` [Example 161, N-[(1R)-1-[3-amino-5-(trifluoromethyl)phenyl]ethyl]-1-(2-methylpyrimidin-5-yl)-6-oxo-pyridazine-3-carboxamide]: the IC50 was less than 1000 nM.

For `C[C@@H](NC(=O)c1ccc(=O)n(-c2ccncc2)c1)c1cccc(C(F)(F)CO)c1F` [Example 162, N-[(1R)-1-[3-(1,1-difluoro-2-hydroxy-ethyl)-2-fluoro-phenyl]ethyl]-6-oxo-1-(4-pyridyl)pyridine-3-carboxamide], the IC50 was less than 1000 nM.

`C[C@@H](NC(=O)c1ccc(=O)n(-c2ccncc2)c1)c1cc(N)cc(C(F)(F)F)c1` [Example 163, N-[(1R)-1-[3-amino-5-(trifluoromethyl)phenyl]ethyl]-6-oxo-1-(4-pyridyl)pyridine-3-carboxamide] had an IC50 of less than 1000 nM.

`C[C@@H](NC(=O)c1ccc(=O)n(-c2cnn(C)c2)c1)c1cccc(C(F)(F)CO)c1F` [Example 164, N-[(1R)-1-[3-(1,1-difluoro-2-hydroxy-ethyl)-2-fluoro-phenyl]ethyl]-1-(1-methylpyrazol-4-yl)-6-oxo-pyridine-3-carboxamide] gave an IC50 of less than 1000 nM.

Regarding `C[C@@H](NC(=O)c1ccc(=O)n(-c2cnn(C)c2)c1)c1cc(N)cc(C(F)(F)F)c1` [Example 165, N-[(1R)-1-[3-amino-5-(trifluoromethyl)phenyl]ethyl]-1-(1-methylpyrazol-4-yl)-6-oxo-pyridine-3-carboxamide], the IC50 was less than 1000 nM.

As for `C[C@@H](NC(=O)c1ccc(=O)n(-c2cccc(C(=O)N(C)C)c2)c1)c1cc(N)cc(C(F)(F)F)c1` [Example 166, N-[(1R)-1-[3-amino-5-(trifluoromethyl)phenyl]ethyl]-1-[3-(dimethylcarbamoyl)phenyl]-6-oxo-pyridine-3-carboxamide], the IC50 was less than 1000 nM.

`C[C@@H](NC(=O)c1ccc(=O)n(-c2cccc(S(C)(=O)=O)c2)c1)c1cc(N)cc(C(F)(F)F)c1` [Example 167, N-[(1R)-1-[3-amino-5-(trifluoromethyl)phenyl]ethyl]-1-(3-methylsulfonylphenyl)-6-oxo-pyridine-3-carboxamide] yielded an IC50 of less than 1000 nM.

On to `COc1ccccc1-n1cc(C(=O)N[C@H](C)c2cc(N)cc(C(F)(F)F)c2)ccc1=O` [Example 168, N-[(1R)-1-[3-amino-5-(trifluoromethyl)phenyl]ethyl]-1-(2-methoxyphenyl)-6-oxo-pyridine-3-carboxamide], for which the IC50 is less than 1000 nM.

Take `C[C@@H](NC(=O)c1ccc(=O)n(-c2cccc(CO)c2)n1)c1cc(N)cc(C(F)(F)F)c1` [Example 169, N-[(1R)-1-[3-amino-5-(trifluoromethyl)phenyl]ethyl]-1-[3-(hydroxymethyl)phenyl]-6-oxo-pyridazine-3-carboxamide]: the IC50 is less than 1000 nM.

`C[C@@H](NC(=O)c1ccc(=O)n(-c2cccc(CO)c2)n1)c1cccc(C(F)(F)CO)c1F` [Example 170, N-[(1R)-1-[3-(1,1-difluoro-2-hydroxy-ethyl)-2-fluoro-phenyl]ethyl]-1-[3-(hydroxymethyl)phenyl]-6-oxo-pyridazine-3-carboxamide] came in with an IC50 of less than 1000 nM.

`C[C@@H](O)c1cccc(-n2nc(C(=O)N[C@H](C)c3cc(N)cc(C(F)(F)F)c3)ccc2=O)c1` [Example 173, N-[(1R)-1-[3-amino-5-(trifluoromethyl)phenyl]ethyl]-1-[3-[(1R)-1-hydroxyethyl]phenyl]-6-oxo-pyridazine-3-carboxamide] gave an IC50 of less than 1000 nM.

Molecule `C[C@H](O)c1cccc(-n2nc(C(=O)N[C@H](C)c3cc(N)cc(C(F)(F)F)c3)ccc2=O)c1` [Example 174, N-[(1R)-1-[3-amino-5-(trifluoromethyl)phenyl]ethyl]-1-[3-[(1S)-1-hydroxyethyl]phenyl]-6-oxo-pyridazine-3-carboxamide] yielded an IC50 of less than 1000 nM.

The molecule `C[C@@H](NC(=O)c1ccc(=O)n(-c2cccnc2)c1)c1cccc(C(F)(F)CO)c1F` [Example 175, N-[(1R)-1-[3-(1,1-difluoro-2-hydroxy-ethyl)-2-fluoro-phenyl]ethyl]-6-oxo-1-(3-pyridyl)pyridine-3-carboxamide] registered an IC50 of 1000 to 10000 nM.

For the molecule `C[C@@H](NC(=O)c1ccc(=O)n(-c2cccnc2)c1)c1cc(N)cc(C(F)(F)F)c1` [Example 176, N-[(1R)-1-[3-amino-5-(trifluoromethyl)phenyl]ethyl]-6-oxo-1-(3-pyridyl)pyridine-3-carboxamide], the IC50 is more than 10000 nM.

The molecule `COc1ccc(F)c(-n2cc(C(=O)N[C@H](C)c3cccc(C(F)(F)CO)c3F)ccc2=O)c1` [Example 177, N-[(1R)-1-[3-(1,1-difluoro-2-hydroxy-ethyl)-2-fluoro-phenyl]ethyl]-1-(2-fluoro-5-methoxyphenyl)-6-oxo-pyridine-3-carboxamide] displayed an IC50 of less than 1000 nM.

For `COc1ccc(F)c(-n2cc(C(=O)N[C@H](C)c3cc(N)cc(C(F)(F)F)c3)ccc2=O)c1` [Example 178, N-[(1R)-1-[3-amino-5-(trifluoromethyl)phenyl]ethyl]-1-(2-fluoro-5-methoxy-phenyl)-6-oxo-pyridine-3-carboxamide], the IC50 was less than 1000 nM.

`COc1ccc(-n2cc(C(=O)N[C@H](C)c3cccc(C(F)(F)CO)c3F)ccc2=O)c(F)c1` [Example 179, N-[(1R)-1-[3-(1,1-difluoro-2-hydroxy-ethyl)-2-fluoro-phenyl]ethyl]-1-(2-fluoro-4-methoxyphenyl)-6-oxo-pyridine-3-carboxamide]: the IC50 was less than 1000 nM.

`COc1ccc(-n2cc(C(=O)N[C@H](C)c3cc(N)cc(C(F)(F)F)c3)ccc2=O)c(F)c1` [Example 180, N-[(1R)-1-[3-amino-5-(trifluoromethyl)phenyl]ethyl]-1-(2-fluoro-4-methoxy-phenyl)-6-oxo-pyridine-3-carboxamide] registered an IC50 of less than 1000 nM.

As to `C[C@@H](NC(=O)c1ccc(=O)n(-c2ccccc2F)c1)c1cccc(C(F)(F)CO)c1F` [Example 181, N-[(1R)-1-[3-(1,1-difluoro-2-hydroxy-ethyl)-2-fluoro-phenyl]ethyl]-1-(2-fluorophenyl)-6-oxo-pyridine-3-carboxamide], the IC50 is less than 1000 nM.

Consider `COc1ccc(F)c(-n2nc(C(=O)N[C@H](C)c3cccc(C(F)(F)CO)c3F)ccc2=O)c1` [Example 182, N-[(1R)-1-[3-(1,1-difluoro-2-hydroxy-ethyl)-2-fluoro-phenyl]ethyl]-1-(2-fluoro-5-methoxyphenyl)-6-oxo-pyridazine-3-carboxamide], for which the IC50 is less than 1000 nM.

For the molecule `COc1ccc(F)c(-n2nc(C(=O)N[C@H](C)c3cc(N)cc(C(F)(F)F)c3)ccc2=O)c1` [Example 183, N-[(1R)-1-[3-amino-5-(trifluoromethyl)phenyl]ethyl]-1-(2-fluoro-5-methoxy-phenyl)-6-oxo-pyridazine-3-carboxamide], the half-maximal inhibitory concentration (IC50) was less than 1000 nM.

For the molecule `COc1cccc(-n2nc(C(=O)N[C@H](C)c3cccc(C(F)(F)CO)c3F)ccc2=O)c1F` [Example 184, N-[(1R)-1-[3-(1,1-difluoro-2-hydroxy-ethyl)-2-fluoro-phenyl]ethyl]-1-(2-fluoro-3-methoxyphenyl)-6-oxo-pyridazine-3-carboxamide], the IC50 is less than 1000 nM.
